Data: paper PMC12128972, “TYRA-300, an FGFR3-selective inhibitor, promotes bone growth in two FGFR3-driven models of chondrodysplasia” (JCI Insight, 2025)
Values joined by “and” are separate entries in the source; they are usually repeats but may differ in a detail not shown here. Equal entries are not always repeated.

Legend:
[1] = system: femurs of Fgfr3^Y367C/+ mice; experiment: Fgfr3Y367C/+ mice: microCT of femurs (SOC bone volume, BMD, BV/TV); type: in vivo, mouse; settings: 1.2 mg/kg s.c. daily for 15 days
Experimental: Finally, measurements of trabecular bone quality were performed using μCT imaging of the femurs (Supplemental Figure 2).
Femurs were placed in 70% ethanol at 4°C and measured on the Skyscan-1272 (Bruker) with the following parameters: 60 kV, 166 μA, 0.25 mm aluminum filter. Within the femurs, the trabecular parameters were obtained at 5 μm voxel resolution in a ROI (normalized to 7% of the femur length in size) beginning 255 μm proximal to the distal growth plate for controls, 25 μm for Fgfr3^Y367C/+ + vehicle, and 35 μm for Fgfr3^Y367C/+ + TYRA-300. The BMD and BV/TV of the metaphysis were measured using on a set of sections located within the secondary spongiosa under the growth plate. The measured volume was chosen to be proportional to the femur length (typically 630 μm for control animals and 310 μm for Fgfr3^Y367C/+ + vehicle and 415 μm for Fgfr3^Y367C/+ + TYRA-300.) Scan reconstruction was done using NRecon (v 1.7.4.6). Scan orientation was done using DataViewer (v 1.7.0.1). 3D Analysis for trabecular bone was performed using CT Analyzer (v 1.23.0.2).

wild-type C57BL/6J mice = experiment: Wild-type mouse growth velocity study; type: in vivo; design: nasoanal length, individual mice: unit not given here; settings: for femur length by calipers, individual mice / tibia length by calipers, individual mice: final day of treatment (8 weeks of age), in mm (unit assumed); for femurs longer than vehicle / tibias longer than vehicle: 4 weeks of treatment
Experimental: To determine the in vivo effect of FGFR3 inhibition under normal physiologic conditions, TYRA-300 was tested in a growth velocity assay in wild-type mice ([32]). In this study, wild-type C57BL/6J mice were dosed orally with TYRA-300 once daily from 4 to 8 weeks of age. […] Based on the doses evaluated for infigratinib in oncology and ACH, a lower dose was thought to be more appropriate for long-term treatment of pediatric growth–related conditions. We therefore initially explored doses in the 8 to 14 mg/kg range in this model. […] Specifically, after treatment with 12 mg/kg TYRA-300, the tibias were on average 3.9% longer than the tibias of mice that received treatment with vehicle, and the femurs were on average 5.0% longer after treatment; additionally, with 14 mg/kg TYRA-300, the tibias were 6.4% longer and the femurs were 8.2% longer. There was no difference in body weight among the treatment groups (data not shown).
At 21 days of age, female C57BL/6J mice (The Jackson Laboratory) were subject to nasoanal length and nasotail length measurement while under anesthesia. Tail length was calculated by subtracting nasoanal length from nasotail length. Body weights were also recorded. One week later, at 28 days of age, nasoanal lengths and body weights were measured again and mice were randomized to treatment groups of 12 mice per group according to nasoanal length. TYRA-300 was dissolved in 30% hydroxypropyl-β-cyclodextrin for administration by oral gavage. Mice were dosed orally with TYRA-300 or vehicle control once daily (QD) for 4 weeks, and nasoanal lengths and body weights were monitored once weekly, along with daily clinical observations. Mouse tibias and femurs were collected and measured with calipers at the end of the study.

[2] = system: skull and foramen magnum of Fgfr3^Y367C/+ mice; experiment: Fgfr3Y367C/+ mice: skull and foramen magnum (calipers, microCT), grade of synchondroses; type: in vivo, mouse; design: source data of Figure 3I (sheet "3I"): grade of synchondroses: scale not given here
Experimental: Another hallmark of ACH that is observed in Fgfr3^Y367C/+ mice is change in the size and shape of the skull and foramen magnum ([28]). The size of the foramen magnum is of particular clinical importance, as its reduced size can cause compression of the brain stem and spinal cord, resulting in significant morbidity and mortality in infants with ACH ([37]–[40]). To study the effects of TYRA-300 on the skull and foramen magnum in Fgfr3^Y367C/+ mice, macroscopic analyses were performed and μCT images were taken of the mice at the end of study. Changes in the shape of the skull are visible on μCT images in TYRA-300–treated Fgfr3^Y367C/+ mice compared with vehicle-treated Fgfr3^Y367C/+ mice (Figure 3A). […] The skull was further analyzed using the μCT images, which enabled measurement of the anteroposterior length and nasio-occipital length of the skull.
The μCT images also indicate that treatment with TYRA-300 modified the synchondroses at the base of the skull (Figure 3, I and J). […] Overall, the improvement in the size and shape of the foramen magnum with TYRA-300 has important clinical implications for foramen magnum stenosis.
Whole body x-ray images were taken of all animals by Faxitron specimen radiography MX-20 (Faxitron X-Ray LLC) following terminal sacrifice. The length of the L4–L6 lumbar vertebra segment was also measured for each animal using calipers, and the height of the L5 vertebral body was measured from Alcian blue/Sirius red images. Long bones and the skull were then excised, and their dimensions were measured using calipers (VWRi819-0013, VWR International). The transverse and sagittal diameters of the foramen magnum were also measured using calipers for the Fgfr3^Y367/+ model, and measured using the μCT images for the Fgfr3^N534K/+ model.
The heads of all mice were isolated, and skin was stripped before being placed in 70% ethanol at 4°C. μCT images of the skulls were measured on the Skyscan-1272 (Bruker) with the following parameters: 10 μm resolution, 680 ms exposure, 70 kV, 142 μA, and 0.350° rotation step. The μCT data were analyzed using DataViewer and CTAn software (version 1.20.8) to perform postprocessing techniques in 3D. The nasio-occipital length and anteroposterior length of the skull were measured using 2D μCT images.

FGFR3 N540K = system: FGFR3 N540K; design: method as in PMID 39258897; settings: cited from earlier work
[3] = 12 mg/kg oral daily from week 4, week 3 of age (before treatment)
[4] = 12 mg/kg oral daily from week 4, week 4 of age (start of treatment)
[5] = 12 mg/kg oral daily from week 4, week 5 of age
[6] = 12 mg/kg oral daily from week 4, week 6 of age
[7] = 12 mg/kg oral daily from week 4, week 7 of age
[8] = 12 mg/kg oral daily from week 4, week 8 of age
[9] = 14 mg/kg oral daily from week 4, week 3 of age (before treatment)
[10] = 14 mg/kg oral daily from week 4, week 4 of age (start of treatment)
[11] = 1.2 mg/kg s.c. daily for 15 days
[12] = 1.2 mg/kg s.c. daily for 15 days, macroscopic
[13] = 1.2 mg/kg s.c. daily for 15 days, microCT

For `C[C@@H](Oc1ccc2[nH]nc(-c3ccc(N4CC5(C4)CN(S(C)(=O)=O)C5)nc3)c2c1)c1c(Cl)cncc1Cl` [TYRA-300], the “bone volume of the SOC (microCT) vs vehicle” value [1] was “significant increase”, the “increase in bone mineral density (BMD) vs vehicle” value ([1]; femoral metaphyses) was 21.4% and the “increase in bone volume-to-tissue volume ratio (BV/TV) vs vehicle” value ([1]; femoral metaphyses) was 73.3%. The “nasoanal length and tibia and femur length vs vehicle” value (wild-type C57BL/6J mice; 8 mg/kg and 10 mg/kg, data not shown, P < 0.05) was “significant increases”, the “tail length and tibia and femur length vs vehicle” value (wild-type C57BL/6J mice; 12 mg/kg and 14 mg/kg oral once daily, 4 weeks) was “increased significantly and dose-dependently” and the “nasoanal length, individual mice” value (wild-type C57BL/6J mice; [3]) was 6.5 and 7.5 (2×) and 7.3 and 7 (3×) and 6.8 (2×) and 6.2 and 7.2 and 6. For the same molecule, the “tail length, individual mice” value (wild-type C57BL/6J mice; [3]) was 5.7 and 6.3 and 6 (2×) and 6.2 and 5.6 and 5.5 and 6.4 and 6.6 and 5.9 and 5.3 and 5.8, the “nasoanal length, individual mice” value (wild-type C57BL/6J mice; [4]) was 7.7 (3×) and 8.2 and 7.8 (3×) and 8 (2×) and 7.2 and 8.3 and 7.3 and the “tail length, individual mice” value (wild-type C57BL/6J mice; [4]) was 5.9 and 7.2 (2×) and 6.9 (2×) and 6.7 and 6.8 and 6.3 and 6.4 (2×) and 5.7 and 6.5. The “nasoanal length, individual mice” value (wild-type C57BL/6J mice; [5]) was 8.2 and 8.6 (3×) and 8.5 (2×) and 8.7 and 8.3 (3×) and 9 and 7.7, the “tail length, individual mice” value (wild-type C57BL/6J mice; [5]) was 6.8 and 7.2 (3×) and 7.3 (2×) and 7.1 (2×) and 6.7 and 7.4 and 7.8 and 6.5 and the “nasoanal length, individual mice” value (wild-type C57BL/6J mice; [6]) was 8.6 (2×) and 8.8 (2×) and 8.7 (3×) and 9.2 and 9.1 and 9 and 9.3 and 8.4. For the same molecule, the “tail length, individual mice” value (wild-type C57BL/6J mice; [6]) was 7.3 and 7.8 (2×) and 7.9 and 7.7 (3×) and 7.6 (2×) and 8 and 8.2 and 7, the “nasoanal length, individual mice” value (wild-type C57BL/6J mice; [7]) was 8.8 and 9.1 (2×) and 9 (3×) and 9.4 and 9.3 and 9.5 and 10 and 9.2 and 8.7 and the “tail length, individual mice” value (wild-type C57BL/6J mice; [7]) was 7.9 (2×) and 8 (3×) and 8.2 and 7.7 (2×) and 8.3 and 8.5 and 7.3 and 8.1. The “nasoanal length, individual mice” value (wild-type C57BL/6J mice; [8]) was 9.2 (3×) and 9.3 (5×) and 9.4 and 9.5 and 10 and 8.8, the “tail length, individual mice” value (wild-type C57BL/6J mice; [8]) was 7.8 and 8.2 and 7.9 and 8.1 (4×) and 8.3 and 8 and 8.5 and 8.6 and 7.5 and the “femur length by calipers, individual mice” value (wild-type C57BL/6J mice; 12 mg/kg oral daily) was 13.78 and 13.37 and 14.79 and 13.97 and 13.86 and 12.93 and 14.23 and 13.91 and 13.8 and 13.51 and 13.98. The “tibia length by calipers, individual mice” value (wild-type C57BL/6J mice; 12 mg/kg oral daily) was 15.08 and 16.34 and 16.3 and 17.19 and 16.6 and 15.75 and 16.27 and 16.06 and 16.41 and 16.46 and 17, the “femurs longer than vehicle” value (wild-type C57BL/6J mice; 12 mg/kg oral once daily) was 5.0% and the “tibias longer than vehicle” value (wild-type C57BL/6J mice; 12 mg/kg oral once daily) was 3.9%. For the same molecule, the “nasoanal length, individual mice” value (wild-type C57BL/6J mice; [9]) was 6.6 and 7.6 (2×) and 7.3 (2×) and 6.7 and 6.3 and 7.1 and 7.2 (2×) and 6.8 and 6.9, the “tail length, individual mice” value (wild-type C57BL/6J mice; [9]) was 5.5 (2×) and 6 (2×) and 6.4 (2×) and 6.1 and 5.3 and 5.7 and 5.6 (3×) and the “nasoanal length, individual mice” value (wild-type C57BL/6J mice; [10]) was 7.7 (2×) and 8.2 (2×) and 7.8 (4×) and 8 (2×) and 7.3 and 7.2. The “tail length, individual mice” value (wild-type C57BL/6J mice; [10]) was 6.3 and 6.9 (2×) and 7 (2×) and 6.8 and 6 (2×) and 6.4 (2×) and 6.6 and 6.7, the “nasoanal length, individual mice” value (wild-type C57BL/6J mice; 14 mg/kg oral daily from week 4, week 5 of age) was 8.7 (2×) and 8.5 and 8.6 and the “tail length, individual mice” value (wild-type C57BL/6J mice; 14 mg/kg oral daily from week 4, week 5 of age, in cm (unit assumed)) was 7 and 7.6 and 7.4 and 7.5. For the same molecule, the “femur length by calipers, individual mice” value (wild-type C57BL/6J mice; 14 mg/kg oral daily) was 14.47 and 14.13 and 13.58 and 13.93 and 13.04 and 14.9 and 14.56 and 14.74 and 14.08 and 15.12 and 14.91 and 13.6, the “tibia length by calipers, individual mice” value (wild-type C57BL/6J mice; 14 mg/kg oral daily) was 16.57 and 16.39 and 16.89 and 16.61 and 16.95 and 17.24 and 16.1 and 17.47 and 16.69 and 16.27 and the “increase in nasoanal length vs vehicle” value (wild-type C57BL/6J mice; 14 mg/kg oral once daily, 4 to 8 weeks of age) was 7.3%. For the same molecule, the “femurs longer than vehicle” value (wild-type C57BL/6J mice; 14 mg/kg oral once daily) was 8.2%, the “tibias longer than vehicle” value (wild-type C57BL/6J mice; 14 mg/kg oral once daily) was 6.4% and the “body weight among the treatment groups” value (wild-type C57BL/6J mice; oral once daily, data not shown) was “no difference”. The “increase in sagittal diameter of the foramen magnum vs vehicle” value [2, 11] was 9.28%, the “increase in transverse diameter of the foramen magnum vs vehicle” value [2, 11] was 13.05% and the “grade of synchondroses (intraoccipital synchondrosis anterior)” value ([2]; 1.2 mg/kg s.c. daily for 15 days, all treated mice) was “II or III”. The “increase in skull length vs vehicle” value [2, 12] was 10.08%, the “increase in skull width vs vehicle” value [2, 12] was 3.74% and the “increase in anteroposterior length of the skull vs vehicle” value [2, 13] was 8.92%. For the same molecule, the “increase in area of the foramen magnum vs vehicle” value [2, 13] was 25.17%, the “increase in nasio-occipital length of the skull vs vehicle” value [2, 13] was 7.87% and the “source data of Figure 3I (sheet "3I"): grade of synchondroses” value ([2]; Fgfr3Y367C/+ mice + TYRA-300, individual animal values) was 3 and 2.5. The “inhibition of FGFR3 N540K relative to wild-type and G380R mutant proteins” value (FGFR3 N540K) was “lower inhibition”.
